Experimental data from US12006343B2, “C4BP-based compounds for treating immunological diseases” (FUNDACIO INSTITUT D'INVESTIGACIO BIOMEDICA DE BELLVITGE …, priority 2017, dated 2024).

Key:
[1] = tested on: Balb/c male mice, CAIA model; type: in vivo, mouse; conditions: for ankle thickness: C4BP(β−) 50 μg sc d3 and d5, dexamethasone 1 mg/kg po d5-11, Enbrel 30 mg/kg sc d5-11; for body weight vs CAIA control group: mouse, in vivo
Text: Collagen-antibody induced arthritis (CAIA) is a simple mouse model of human rheumatoid arthritis (RA) induced by the systemic administration of a cocktail of monoclonal antibodies directed against conserved auto-antigenic collagen type II epitopes, followed by a single injection of lipopolysaccharide (LPS). CAIA is a useful model to study the effector inflammatory phase of arthritis without involving the priming phase of the immune response. The murine CAIA model shares several clinical, immunological and pathological features with RA. Therefore, this model is useful to study the pathogenic mechanisms involved in RA disease as well as for testing new therapies.
Balb/c male mice aged 7-8 weeks were supplied by Envigo. The animals were acclimated during 12 days. The animals were maintained in an environmentally controlled room with ventilation, temperature (22±2° C.), relative humidity (35-65%), and cycle light/dark (12 h/12 h). The animals were housed in groups of 3-5 animals/cage. The maintenance diet was supplied by Harlan Interfauna Ibérica, S. L. (“2014 Harlan Teklad Global Diets”) and they were feed diet and water ad libitum.
Plasmatic C4BP(β−) was supplied at a concentration of 6.2 mg/ml. C4BP(β−) solutions were prepared to the desired concentration 0.33 mg/ml (for 50 μg doses) by dilution with Dulbecco's phosphate-buffered saline (DPBS) of C4BP(β−) 6.2 mg/ml stock solution.
Two reference compounds were used: dexamethasone (Sigma, Ref. D1756) and Enbrel® (etanercept) (Pfizer, Ref. 655950).
Reference compound dexamethasone was dissolved in vehicle (0.1% Tween-80+99% carboxymethyl cellulose (CMC) (0.5% w/v) in water at a concentration of 0.1 mg/ml.
Enbrel® was prepared at 6 mg/ml in DPBS by dilution of 50 mg/mL stock solution.
Experimental Procedure Day 0: Arthritis Induction
On day 0, animals for experimental group C4BPd3 were randomly selected (n=8) and identified using tail code numbers and weighted.
Each mouse was sensitized by the administration of 2 mg anti-type II collagen antibodies cocktail (ArthritoMAB™ cocktail solution, 0.2 mL, i.v., day 0) in the caudal vein.
Day 3: LPS Synchronization
Animals were intraperitoneally administered with 0.1 mL of LPS solution (0.7 mg/ml, 70 μg/animal).
50 μg of C4BP(β−) were administered subcutaneously at day 3 to treatment group C4BPd3.
50 μg of C4BP(β−) were administered subcutaneously at day 5 to treatment group C4BPd3.
Day 5: Animal Distribution
On day 5 after sensitization, the rest of the animals developing clinical signs of arthritis (n=18) were evaluated and distributed in base of CAIA+incidence. Animals were homogeneously randomized (arthritis score) into the CAIA control group, dexamethasone (1 mg/kg at days 5-11, p.o.) and Enbrel®-treated groups (30 mg/kg at days 5-11, s.c.) (n=6). Animals were identified using tail code numbers and weighted.
Group 2 was not included in the distribution because of the previous test item administration.
The arthritis score was determined using the criteria of Table 9.
Treatment: • C4BPd3 group: 50 μg of C4BP(β−) were subcutaneously injected to animals on days 3 and 5. Volume: 0.150 mL. • Reference compound treatments and CAIA control groups (days 5-11): • Enbrel®: 30 mg/kg of Enbrel® was subcutaneously administered to Enbrel group from days 5 to 11. Volume: 5 mL/kg. • Dexamethasone: 1 mg/kg dexamethasone was orally administered to dexamethasone group from days 5 to 11. Volume: 10 mL/kg. • CAIA control group: 0.150 mL of DPBS was subcutaneously administered from days 5 to 11. Arthritis Monitoring:
Body weights were registered daily from days 0-12 in C4BPd3 and from days 5-12 in CAIA control, dexamethasone and Enbrel® groups. Arthritis scores were determined by the same observer in order to avoid observer bias.
The study was finished at day 12.
Animals were anesthetized with isoflurane. Ankles and wrists thickness were measured using a dial thickness gauge. Serum samples were collected and stored at −20° C. […]

[2] = tested on: human monocyte-derived DCs; experiment: Immunomodulatory activity over human monocyte-derived DCs: CD83/CD86 surface expression by flow cytometry after LPS maturation; type: cell-based; conditions: Example 1
Method: In Vitro Functional Assessment of the Immunomodulatory Activity of Full-Length C4BP(β−) and C4BP(β−) Variants Over DCs
The inventors used for the in vitro study both C4BP(β+) (WT) and recombinant C4BP(β−) isoforms, and the above-referred mutants or variants: Mutant 1 and Mutant 2. C4BP(β+) isoforms refer to the major C4BP α7β1 plus the minor C4BP α6β1 isoforms (both in complex with ProS) purified from pooled human plasma.
RPMI 1640 was supplemented with 100 μg/ml of streptomycin, 100 IU/ml of penicillin, 2 mM L-glutamine (all from Invitrogen, Carlsbad, CA) and 10% heat-inactivated fetal bovine serum (Linus, Cultek, Spain) (complete medium), unless otherwise stated.
Peripheral blood mononuclear cells (PBMCs) were obtained from buffy coat preparations collected from healthy donors from the Blood and Tissue Bank (Barcelona, Spain) after Ficoll-Paque™ density centrifugation (GE Healthcare Bio-Sciences AB; Uppsala, Sweden). For surface phenotype determination, monocytes were plated at 1×10^6 cells/ml in 60 mm culture plates (Corning, Spain), in RPMI 1640 medium without serum, and allowed to adhere for 2 h at 37° C. in 5% CO2. The non-adherent cells were removed by washing in PBS.
Monocyte-derived DCs were generated supplementing the monocyte cultures with complete RPMI 1640 medium plus GM-CSF (800 UI/ml) and IL-4 (500 UI/ml) (both from Gentaur, Kampenhout, Belgium) at day 0 and day 3 of culture. For DC maturation, at day 5 iDCs were further stimulated for 48 h with 5 μg/ml LPS (Escherichia coli 055.B5, Sigma L2880, Copenhagen, Denmark).
Staining using the fluorescent dye 7-amino-actinomycin D (7-AAD) (BD Pharmigen) and flow cytometry analysis was employed to assess the viability status of C4BP-treated and untreated DCs.
Cell surface phenotypes were analyzed by flow cytometry using the following mAbs: FITC-conjugated anti-CD83 (HB15a) and PE-conjugated anti-CD86 (HA5.2B7) (all from Beckman-Coulter). The respective isotype controls FITC-conjugated anti-IgG2b (H2) and PE-conjugated anti-IgG2b (H2), were from the same commercial sources. After washing with PBS, cells were subsequently stained with 3 μl mAb/10^5 cells in 100 μl of FACS buffer (PBS containing 1% BSA and 0.1% sodium azide) for 20 min at room temperature. To exclude dead cells and debris, DCs were gated according to forward scatter (FSC) and side scatter (SSC) parameters. Stained cells were analyzed using a FACSCalibur (Becton Dickinson, Franklin Lakes, NJ) equipped with CellQuestPro software (Becton Dickinson).
In Vitro Functional Assessment of C4BP(β−) Immunomodulatory Activity Over DCs
The inventors used for the in vitro study both C4BP(+) and C4BP(β−) isoforms. C4BP(3+) isoforms refer to the major C4BP α7β1 plus the minor C4BP α6β1 isoforms (both in complex with ProS) purified from pooled human plasma, as previously described (Dahlbäck B. 1983. Biochem J., 209:847-56).

Compound: C[C@@H]1C[C@H]2[C@@H]3CCC4=CC(=O)C=C[C@]4(C)[C@@]3(F)[C@@H](O)C[C@]2(C)[C@@]1(O)C(=O)CO [dexamethasone]
- inhibition of arthritis score vs. CAIA controls AUC ([1]; C4BP(β−) 50 μg sc days 3 and 5, dexamethasone 1 mg/kg po days 5-11): 73%
- ankle thickness ([1]; day 12): 2.63±0.05 mm
- body weight vs CAIA control group [1]: No remarkable differences

Compound: C4BP(CCP5-CCP8)(α7β0) [Mutant 1]
- immunomodulatory activity over DCs [2]: retains the immunomodulatory activity over DCs

Compound: etanercept [Enbrel]
- inhibition of arthritis score vs. CAIA controls d12 ([1]; Enbrel 30 mg/kg sc days 5-11): 47%
- ankle thickness ([1]; day 12): 2.73±0.04 mm
- wrist thickness vs. CAIA control ([1]; day 12, regimens as Table 8): No changes
- body weight vs CAIA control group [1]: No remarkable differences
- arthritis scores / progression of arthritis ([1]; regimens as Table 8, vs CAIA control group): progressive reduction of arthritis scores over time
